Measurements: the NIST ThermoML archive (doi:10.1021/je050503q)

Experiment: xn = mol fraction of the nth substance listed
Details: Liquid

COCCOCCOCCOC [2,5,8,11-tetraoxadodecane] + FCC(F)(F)F
Details | mass density [kg/m3]
283.27 K, 1086 kPa, x2 = 0.9485 | 1245.33
283.27 K, 2000 kPa, x2 = 0.9485 | 1248.44
283.27 K, 3016 kPa, x2 = 0.9485 | 1251.83
283.27 K, 4003 kPa, x2 = 0.9485 | 1255.03
283.27 K, 5009 kPa, x2 = 0.9485 | 1258.22
283.27 K, 6019 kPa, x2 = 0.9485 | 1261.33
283.28 K, 1070 kPa, x2 = 0.9798 | 1255.94
283.28 K, 1986 kPa, x2 = 0.9798 | 1259.56
283.28 K, 2984 kPa, x2 = 0.9798 | 1263.39
283.28 K, 4004 kPa, x2 = 0.9798 | 1267.2
283.28 K, 4996 kPa, x2 = 0.9798 | 1270.8
283.28 K, 5989 kPa, x2 = 0.9798 | 1274.3
283.29 K, 1047 kPa, x2 = 0.9655 | 1251.56
283.29 K, 1992 kPa, x2 = 0.9655 | 1255.06
283.29 K, 2996 kPa, x2 = 0.9655 | 1258.69
283.29 K, 3988 kPa, x2 = 0.9655 | 1262.16
283.29 K, 4999 kPa, x2 = 0.9655 | 1265.62
283.29 K, 5987 kPa, x2 = 0.9655 | 1268.91
293.3 K, 1086 kPa, x2 = 0.9485 | 1215.38
293.3 K, 2016 kPa, x2 = 0.9485 | 1219.06
293.3 K, 2998 kPa, x2 = 0.9485 | 1222.84
293.3 K, 3985 kPa, x2 = 0.9485 | 1226.51
293.3 K, 5000 kPa, x2 = 0.9485 | 1230.18
293.3 K, 6018 kPa, x2 = 0.9485 | 1233.75
293.31 K, 1086 kPa, x2 = 0.9798 | 1222.61
293.31 K, 2003 kPa, x2 = 0.9798 | 1226.87
293.31 K, 2985 kPa, x2 = 0.9798 | 1231.29
293.31 K, 4010 kPa, x2 = 0.9798 | 1235.72
293.31 K, 4992 kPa, x2 = 0.9798 | 1239.84
293.31 K, 6009 kPa, x2 = 0.9798 | 1243.96
293.32 K, 1047 kPa, x2 = 0.9655 | 1219.81
293.32 K, 2002 kPa, x2 = 0.9655 | 1223.94
293.32 K, 2997 kPa, x2 = 0.9655 | 1228.11
293.32 K, 3984 kPa, x2 = 0.9655 | 1232.11
293.32 K, 5001 kPa, x2 = 0.9655 | 1236.1
293.32 K, 5994 kPa, x2 = 0.9655 | 1239.88
303.33 K, 1176 kPa, x2 = 0.9798 | 1187.73
303.33 K, 1189 kPa, x2 = 0.9485 | 1184.28
303.33 K, 1998 kPa, x2 = 0.9485 | 1188.03
303.33 K, 2990 kPa, x2 = 0.9485 | 1192.49
303.33 K, 3984 kPa, x2 = 0.9485 | 1196.79
303.33 K, 5011 kPa, x2 = 0.9485 | 1201.05
303.33 K, 5992 kPa, x2 = 0.9485 | 1205.02
303.34 K, 2006 kPa, x2 = 0.9798 | 1192.33
303.34 K, 3006 kPa, x2 = 0.9798 | 1197.65
